Tested on: 186277-243-T-J2-PDC complex spheroids, viability
Assay: Anticancer human tumor 186277-243-T-J2-PDC patient-derived colon adenocarcinoma cell line growth inhibition [RAS]
Details: for viability, T/C: stronger effect = lower value
Excerpt: RAS pathway inhibitors in Combinations in Complex Spheroids
A high-throughput screen of multi-cell type tumor spheroids was designed to identify active combinations of RAS pathway inhibitors and targeted small molecules. Complex spheroids include a stromal component modeled by human endothelial cells (HUVEC) and fibroblasts modeled by human mesenchymal stem cells (MSCs). The concentration ranges selected for each drug and investigational agent were based upon clinically achievable concentrations if the clinical Cmax of the agent was known.
Compounds. The drugs and investigational agents: abemaciclib (NSC768073), cobimetinib (NSC768068), divarasib (GDC6063, NSC841802), docetaxel (NSC628503), GDC-1971 (RLY-1971, NSC841576), gemcitabine (NSC613327), inavolisib (NSC800729), ipatasertib (NSC767898), KB-0742 (NSC834161), MRTX-1133 (NSC836407), osimertinib (NSC779217), RMC-4630 (NSC839698), RMC-6236 (NSC851965), RMC-6291 (NSC852671), Ro-3306 (NSC812927), sapanisertib (NSC764658), SN-38 (NSC673596), staurosporine (NSC755774), SY5609 (NSC837396), and tovorafenib (DAY101, NSC766906), were obtained from the National Cancer Institute (NCI) Developmental Therapeutics Program Chemical Repository. The FDA-approved anticancer drug set is available from the NCI Developmental Therapeutics Program. […] The stock solutions were prepared in dimethyl sulfoxide (DMSO, Sigma-Aldrich, St. Louis, MO, cat. D2650) at 800-fold the tested concentration and stored at -70 degrees C prior to their use. All drugs and investigational agents were tested over a range starting from a high concentration at or near the clinical Cmax and decreasing in half-log increments. If the clinical Cmax for an agent had not been determined, the highest concentration tested was 10 microM.
Cell Culture. All cells were maintained in an incubator at 37 degrees C and 5% CO2 with 95% humidity. The PDC lines were cultured according to standard operating procedures established by the NCI PDMR. All PDCs were thawed and cultured in Matrigel-coated flasks prepared with a working solution of 1X Ham's F-12 nutrient mix, without supplementation (Invitrogen, Waltham, MA, cat. 11765054), 100 U/mL penicillin-streptomycin (Invitrogen, cat. 15140122), and 2.5% Matrigel (Corning Inc., Corning, NY, cat. 354248) for the first three passages. The 362531-283-R-J2-PDC and 782815-120-R-J1-PDC lines were cultured in 6C/Colon 1B media, which includes advanced DMEM/F-12 (Thermo Fisher Scientific, cat. 12634028), 10 mM HEPES (Thermo Fisher Scientific, cat. 15630080), 1X GlutaMAX supplement (Thermo Fisher Scientific, cat. 35050061), 0.1 mg/mL primocin (InvivoGen, San Diego, CA, cat. ant-pm-2), 10% defined fetal bovine serum, heat inactivated (HyClone Laboratories Inc., Logan, UT, cat. SH30070.03HI), 50% L-WRN conditioned media (ATCC, cat. CRL-3276), 1.25 mM N-Acetyl-L-cysteine (Sigma-Aldrich, cat. A9165), 10 mM nicotinamide (Sigma-Aldrich, cat. N0636), 1X B-27 supplement (Thermo Fisher Scientific, cat. 17504044), 1X N-2 supplement (Thermo Fisher Scientific, cat. 17502048), 50 ng/mL human EGF (Thermo Fisher Scientific, cat. PHG0311), and 10 microM Y-27632 dihydrochloride (Tocris Bioscience, cat. 1254). The K12877-001-R-J1-PDC line was cultured in 6I media, which includes all 6C/Colon 1B media plus 10 ng/mL human FGF-10 (PeproTech, cat. 100-26), 1 ng/mL human FGF-2 (PeproTech, cat. 100-18B), 1 µM prostaglandin E2 (Tocris Bioscience, cat. 2296), […] hydrocortisone (Sigma-Aldrich, cat. H4001), and […] bovine insulin (Sigma-Aldrich, cat. I6634). The K86415-001-R-J1-PDC line was cultured in 6D media, which includes all 6C/Colon 1B media components minus the L-WRN conditioned media. The 485176-168-R4-J1-PDC was cultured in PANC media, which includes all 6C/Colon 1B media plus 100 ng/mL human FGF-10 (PeproTech, cat. 100-26), 500 nM SB-431542 (Selleckchem, cat. S1067), and 10 nM gastrin (Tocris Bioscience, cat. 3006). […]
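Note: spheroids exposed to compounds for 7 days before viability read.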

O=C(c1ccc(F)c(F)c1Nc1ccc(I)cc1F)N1CC(O)([C@@H]2CCCCN2)C1
viability, T/C (compound 0.00316 µM): 102% [middle of 4 runs] | viability, T/C (compound 0.01 µM): 93.3% [middle of 4 runs] | viability, T/C (compound 0.0316 µM): 94.1% [middle of 4 runs] | viability, T/C (compound 0.1 µM): 39.6% [middle of 4 runs] | viability, T/C (compound 0.316 µM): 9.71% [middle of 4 runs] | viability, T/C (compound 1 µM): 5.17% [middle of 4 runs] | IC50 (curve of compound): 79.7 nM [middle of 4 runs]

C#Cc1c(F)ccc2cc(O)cc(-c3ncc4c(N5CC6CCC(C5)N6)nc(OCC56CCCN5CC(F)C6)nc4c3F)c12 (stereo unspecified)
viability, T/C (compound 0.0316 µM): 70% [middle of 8 runs] | viability, T/C (compound 0.1 µM): 62.6% [middle of 8 runs] | viability, T/C (compound 0.316 µM): 32.4% [middle of 8 runs] | viability, T/C (compound 1 µM): 18.4% [middle of 8 runs] | viability, T/C (compound 3.16 µM): 12.2% [middle of 8 runs] | viability, T/C (compound 10 µM): 10.1% [middle of 8 runs] | IC50 (compound alone, run of 06/10/2024): 160 nM [middle of 8 runs]

NC1c2ccccc2OC12CCN(c1cnc3c(N4CCCc5ncccc54)n[nH]c3n1)CC2 (stereo unspecified) + C#Cc1c(F)ccc2cc(O)cc(-c3ncc4c(N5CC6CCC(C5)N6)nc(OCC56CCCN5CC(F)C6)nc4c3F)c12
IC50 (curve of first compound, second compound 0.0316 µM): < 31.6 nM | IC50 (curve of first compound, second compound 0.1 µM): < 31.6 nM | IC50 (curve of first compound, second compound 0.316 µM): < 31.6 nM | IC50 (curve of first compound, second compound 1 µM): < 31.6 nM | IC50 (curve of first compound, second compound 3.16 µM): < 31.6 nM | IC50 (curve of first compound, second compound 10 µM): < 31.6 nM | viability, T/C (second compound 0.0316 µM, first compound 0.0316 µM): 39.1% | viability, T/C (second compound 0.0316 µM, first compound 0.1 µM): 14.9% | viability, T/C (second compound 0.0316 µM, first compound 0.316 µM): 8.55% | viability, T/C (second compound 0.0316 µM, first compound 1 µM): 7.47% | viability, T/C (second compound 0.0316 µM, first compound 3.16 µM): 5.16% | viability, T/C (second compound 0.0316 µM, first compound 10 µM): 3.58% | viability, T/C (second compound 0.1 µM, first compound 0.0316 µM): 14.2% | viability, T/C (second compound 0.1 µM, first compound 0.1 µM): 9.2% | viability, T/C (second compound 0.1 µM, first compound 0.316 µM): 7.59% | viability, T/C (second compound 0.1 µM, first compound 1 µM): 7.67% | viability, T/C (second compound 0.1 µM, first compound 3.16 µM): 5.13% | viability, T/C (second compound 0.1 µM, first compound 10 µM): 3.21% | viability, T/C (second compound 0.316 µM, first compound 0.0316 µM): 10.8% | viability, T/C (second compound 0.316 µM, first compound 0.1 µM): 8.96% | viability, T/C (second compound 0.316 µM, first compound 0.316 µM): 7.32% | viability, T/C (second compound 0.316 µM, first compound 1 µM): 7.04% | viability, T/C (second compound 0.316 µM, first compound 3.16 µM): 5.5% | viability, T/C (second compound 0.316 µM, first compound 10 µM): 3.89% | viability, T/C (second compound 1 µM, first compound 0.0316 µM): 9.12% | viability, T/C (second compound 1 µM, first compound 0.1 µM): 7.57% | viability, T/C (second compound 1 µM, first compound 0.316 µM): 7.39% | viability, T/C (second compound 1 µM, first compound 1 µM): 5.61% | viability, T/C (second compound 1 µM, first compound 3.16 µM): 4.48% | viability, T/C (second compound 1 µM, first compound 10 µM): 3.29% | viability, T/C (second compound 3.16 µM, first compound 0.0316 µM): 8.98% | viability, T/C (second compound 3.16 µM, first compound 0.1 µM): 6.65% | viability, T/C (second compound 3.16 µM, first compound 0.316 µM): 5.07% | viability, T/C (second compound 3.16 µM, first compound 1 µM): 4.41% | viability, T/C (second compound 3.16 µM, first compound 3.16 µM): 5.32% | viability, T/C (second compound 3.16 µM, first compound 10 µM): 2.82% | viability, T/C (second compound 10 µM, first compound 0.0316 µM): 6.21% | viability, T/C (second compound 10 µM, first compound 0.1 µM): 5.08% | viability, T/C (second compound 10 µM, first compound 0.316 µM): 3.47% | viability, T/C (second compound 10 µM, first compound 1 µM): 2.88% | viability, T/C (second compound 10 µM, first compound 3.16 µM): 1.6% | viability, T/C (second compound 10 µM, first compound 10 µM): 0.47%

Reference: PubChem BioAssay AID2060908 (Molecular Pharmacology Branch, DTP, NCI, 2025)
